{"source": "paper doi:10.1101/2021.04.08.439011v1", "about": "(biorxiv, 2021)", "key": {"MYO3A": {"target": "MYO3A (Homo sapiens, UniProt Q8NEV4)", "settings": "1 µM; binder"}, "BTK": {"target": "BTK (Homo sapiens, UniProt Q06187)", "settings": "1 µM; binder"}, "YANK2": {"target": "YANK2 (Homo sapiens, UniProt Q9NY57)", "sequence (Q9NY57 whole entry)": "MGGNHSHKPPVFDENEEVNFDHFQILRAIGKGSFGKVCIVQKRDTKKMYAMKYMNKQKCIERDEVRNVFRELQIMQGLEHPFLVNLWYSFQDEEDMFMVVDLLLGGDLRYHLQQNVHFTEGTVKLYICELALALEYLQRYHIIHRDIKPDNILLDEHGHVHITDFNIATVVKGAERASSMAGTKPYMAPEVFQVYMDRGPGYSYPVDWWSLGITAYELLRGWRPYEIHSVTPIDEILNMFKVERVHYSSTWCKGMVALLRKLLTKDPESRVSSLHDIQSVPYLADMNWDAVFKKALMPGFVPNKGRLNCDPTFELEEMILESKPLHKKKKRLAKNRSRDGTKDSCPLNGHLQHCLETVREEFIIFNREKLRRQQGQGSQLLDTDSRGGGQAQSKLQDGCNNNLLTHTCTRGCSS", "settings": "1 µM; binder"}, "SNRK": {"target": "SNRK (Homo sapiens, UniProt Q9NRH2)", "sequence (Q9NRH2 whole entry)": "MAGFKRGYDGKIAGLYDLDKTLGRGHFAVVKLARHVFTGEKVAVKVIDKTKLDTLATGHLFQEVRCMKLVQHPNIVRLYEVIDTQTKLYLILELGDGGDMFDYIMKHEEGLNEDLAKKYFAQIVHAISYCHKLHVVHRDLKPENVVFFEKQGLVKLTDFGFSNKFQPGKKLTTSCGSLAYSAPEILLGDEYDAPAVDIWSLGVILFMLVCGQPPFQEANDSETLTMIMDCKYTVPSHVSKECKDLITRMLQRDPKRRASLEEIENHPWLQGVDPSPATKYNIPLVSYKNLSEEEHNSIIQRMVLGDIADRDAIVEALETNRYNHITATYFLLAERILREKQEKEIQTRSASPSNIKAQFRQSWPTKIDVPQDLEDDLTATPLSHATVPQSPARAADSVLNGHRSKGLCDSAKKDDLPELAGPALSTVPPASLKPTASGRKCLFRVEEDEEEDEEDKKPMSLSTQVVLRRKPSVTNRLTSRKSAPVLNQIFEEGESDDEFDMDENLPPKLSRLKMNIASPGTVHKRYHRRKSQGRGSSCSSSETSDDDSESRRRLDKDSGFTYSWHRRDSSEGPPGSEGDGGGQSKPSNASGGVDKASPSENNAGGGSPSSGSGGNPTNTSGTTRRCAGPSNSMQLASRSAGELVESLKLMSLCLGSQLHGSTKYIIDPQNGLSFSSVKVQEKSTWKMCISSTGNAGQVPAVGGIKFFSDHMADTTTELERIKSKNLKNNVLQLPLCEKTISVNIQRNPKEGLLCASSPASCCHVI", "settings": "1 µM; binder"}, "TAOK1": {"target": "TAOK1 (Homo sapiens, UniProt Q7L7X3)", "settings": "1 µM; binder"}, "JAK3": {"target": "JAK3 (Homo sapiens, UniProt P52333)", "sequence (P52333 whole entry, the tested form may be a part)": "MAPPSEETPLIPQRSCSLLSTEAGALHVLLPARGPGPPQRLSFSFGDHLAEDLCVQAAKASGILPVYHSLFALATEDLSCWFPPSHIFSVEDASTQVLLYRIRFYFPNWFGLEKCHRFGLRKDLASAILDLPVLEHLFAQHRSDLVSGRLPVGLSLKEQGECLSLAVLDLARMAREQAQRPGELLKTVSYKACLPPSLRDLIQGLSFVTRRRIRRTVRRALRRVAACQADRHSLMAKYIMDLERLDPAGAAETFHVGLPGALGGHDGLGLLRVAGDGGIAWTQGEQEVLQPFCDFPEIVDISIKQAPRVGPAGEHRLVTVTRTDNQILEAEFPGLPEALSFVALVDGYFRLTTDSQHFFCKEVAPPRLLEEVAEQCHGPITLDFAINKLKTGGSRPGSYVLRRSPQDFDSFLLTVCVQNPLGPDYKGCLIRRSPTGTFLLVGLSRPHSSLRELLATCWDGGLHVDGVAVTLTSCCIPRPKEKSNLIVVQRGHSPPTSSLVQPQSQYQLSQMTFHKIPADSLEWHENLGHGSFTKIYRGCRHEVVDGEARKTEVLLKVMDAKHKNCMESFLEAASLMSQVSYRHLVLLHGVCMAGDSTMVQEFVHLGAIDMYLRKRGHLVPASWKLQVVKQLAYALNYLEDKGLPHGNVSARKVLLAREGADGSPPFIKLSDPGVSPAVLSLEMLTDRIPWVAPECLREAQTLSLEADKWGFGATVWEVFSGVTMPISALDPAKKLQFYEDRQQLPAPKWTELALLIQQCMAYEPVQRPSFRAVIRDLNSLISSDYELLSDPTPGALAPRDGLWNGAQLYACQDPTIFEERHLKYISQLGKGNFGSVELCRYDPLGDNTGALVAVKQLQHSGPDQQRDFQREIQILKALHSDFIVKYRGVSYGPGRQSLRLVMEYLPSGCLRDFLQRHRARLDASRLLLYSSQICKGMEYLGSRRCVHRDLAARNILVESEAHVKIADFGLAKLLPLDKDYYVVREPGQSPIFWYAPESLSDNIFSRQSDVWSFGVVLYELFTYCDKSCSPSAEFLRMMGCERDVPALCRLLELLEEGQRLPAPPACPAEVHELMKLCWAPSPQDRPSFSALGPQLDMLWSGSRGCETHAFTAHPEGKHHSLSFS", "settings": "JH1 domain catalytic; binder"}, "TAK1": {"target": "TAK1 (Homo sapiens, UniProt O43318)", "sequence (O43318 whole entry)": "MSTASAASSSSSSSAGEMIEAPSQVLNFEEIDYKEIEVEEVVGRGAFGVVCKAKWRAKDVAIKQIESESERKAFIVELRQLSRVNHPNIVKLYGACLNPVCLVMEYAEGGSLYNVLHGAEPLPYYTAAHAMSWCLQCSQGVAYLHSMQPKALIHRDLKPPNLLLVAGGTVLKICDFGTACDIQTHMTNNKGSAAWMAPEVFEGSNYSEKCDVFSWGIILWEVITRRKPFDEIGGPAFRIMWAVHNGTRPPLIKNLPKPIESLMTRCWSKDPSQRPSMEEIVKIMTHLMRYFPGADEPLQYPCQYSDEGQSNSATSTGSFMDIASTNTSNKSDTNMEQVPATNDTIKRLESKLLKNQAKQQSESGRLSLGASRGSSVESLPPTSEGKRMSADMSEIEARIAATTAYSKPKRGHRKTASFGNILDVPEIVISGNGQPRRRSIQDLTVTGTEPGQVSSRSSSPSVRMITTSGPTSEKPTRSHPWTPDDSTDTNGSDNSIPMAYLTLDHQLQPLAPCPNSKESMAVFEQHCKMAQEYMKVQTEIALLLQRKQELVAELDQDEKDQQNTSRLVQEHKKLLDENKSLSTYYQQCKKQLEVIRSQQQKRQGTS", "settings": "1 µM; binder"}, "TSSK3": {"target": "TSSK3 (Homo sapiens, UniProt Q96PN8)", "settings": "1 µM; binder"}, "CSNK1G1": {"target": "CSNK1G1 (Homo sapiens, UniProt Q9HCP0)", "settings": "1 µM; binder"}, "ICK": {"target": "ICK (Homo sapiens, UniProt Q9UPZ9)", "sequence (Q9UPZ9 whole entry)": "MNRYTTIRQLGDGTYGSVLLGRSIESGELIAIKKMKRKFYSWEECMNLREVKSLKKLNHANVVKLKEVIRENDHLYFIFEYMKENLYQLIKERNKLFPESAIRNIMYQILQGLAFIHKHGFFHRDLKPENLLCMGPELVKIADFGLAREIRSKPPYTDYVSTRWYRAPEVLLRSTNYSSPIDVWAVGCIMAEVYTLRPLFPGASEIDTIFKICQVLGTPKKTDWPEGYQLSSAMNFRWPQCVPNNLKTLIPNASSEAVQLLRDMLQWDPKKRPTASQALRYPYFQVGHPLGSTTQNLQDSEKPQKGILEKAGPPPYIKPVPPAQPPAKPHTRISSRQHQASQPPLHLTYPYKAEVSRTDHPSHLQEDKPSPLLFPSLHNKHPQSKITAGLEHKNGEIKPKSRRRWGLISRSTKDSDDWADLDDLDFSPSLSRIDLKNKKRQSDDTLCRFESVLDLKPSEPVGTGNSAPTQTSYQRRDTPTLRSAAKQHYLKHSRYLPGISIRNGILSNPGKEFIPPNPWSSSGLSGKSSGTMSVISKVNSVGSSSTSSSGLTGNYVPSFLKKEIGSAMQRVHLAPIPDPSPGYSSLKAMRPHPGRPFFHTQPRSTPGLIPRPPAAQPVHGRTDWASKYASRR", "settings": "1 µM; binder"}, "ABL2": {"target": "ABL2 (Homo sapiens, UniProt P42684)", "settings": "1 µM; binder"}, "ADCK3": {"target": "ADCK3 (Homo sapiens, UniProt Q8NI60)", "settings": "1 µM; binder"}, "PAK2": {"target": "PAK2 (Homo sapiens, UniProt Q13177)", "settings": "1 µM; binder"}, "RPS6KA1": {"target": "RPS6KA1 (Homo sapiens, UniProt Q15418)", "sequence (Q15418 whole entry)": "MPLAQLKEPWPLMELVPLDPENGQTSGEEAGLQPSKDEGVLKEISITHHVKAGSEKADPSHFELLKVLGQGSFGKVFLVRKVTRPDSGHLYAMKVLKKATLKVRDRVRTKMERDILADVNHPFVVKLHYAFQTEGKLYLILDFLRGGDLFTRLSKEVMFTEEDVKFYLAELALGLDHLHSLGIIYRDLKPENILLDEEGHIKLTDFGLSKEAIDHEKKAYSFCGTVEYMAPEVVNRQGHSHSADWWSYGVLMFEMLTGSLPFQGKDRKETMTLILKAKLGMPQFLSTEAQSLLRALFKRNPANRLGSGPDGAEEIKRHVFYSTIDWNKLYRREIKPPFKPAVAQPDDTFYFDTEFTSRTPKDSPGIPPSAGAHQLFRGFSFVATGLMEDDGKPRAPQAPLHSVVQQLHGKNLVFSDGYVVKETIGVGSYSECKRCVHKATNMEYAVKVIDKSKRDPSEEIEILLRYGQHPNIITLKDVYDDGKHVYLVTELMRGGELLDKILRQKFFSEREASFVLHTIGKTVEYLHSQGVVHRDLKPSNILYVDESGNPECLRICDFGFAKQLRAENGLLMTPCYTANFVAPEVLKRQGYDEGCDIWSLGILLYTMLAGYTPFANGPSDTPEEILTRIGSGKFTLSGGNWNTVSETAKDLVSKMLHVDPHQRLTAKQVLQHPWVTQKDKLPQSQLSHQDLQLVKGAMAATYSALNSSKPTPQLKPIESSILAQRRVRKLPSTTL", "settings": "binder"}, "FGFR1": {"target": "FGFR1 (Homo sapiens, UniProt P11362)", "settings": "1 µM; binder"}, "ITK": {"target": "ITK (Homo sapiens, UniProt Q08881)", "settings": "1 µM; binder"}, "NEK2": {"target": "NEK2 (Homo sapiens, UniProt P51955)", "settings": "1 µM; binder"}, "ERK2": {"target": "ERK2 (Homo sapiens, UniProt P28482)", "sequence (P28482 whole entry)": "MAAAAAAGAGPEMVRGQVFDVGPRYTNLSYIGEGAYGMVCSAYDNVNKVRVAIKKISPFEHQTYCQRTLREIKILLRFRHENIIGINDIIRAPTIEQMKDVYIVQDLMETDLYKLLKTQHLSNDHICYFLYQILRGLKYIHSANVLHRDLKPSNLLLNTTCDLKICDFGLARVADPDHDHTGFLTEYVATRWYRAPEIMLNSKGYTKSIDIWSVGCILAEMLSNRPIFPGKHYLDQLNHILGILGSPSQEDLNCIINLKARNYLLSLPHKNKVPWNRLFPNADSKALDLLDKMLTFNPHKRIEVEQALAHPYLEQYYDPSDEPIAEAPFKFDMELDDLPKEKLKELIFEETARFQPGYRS", "settings": "1 µM; binder"}, "RET(V804M)": {"target": "RET(V804M) (Homo sapiens, UniProt P07949, V804M)", "settings": "1 µM; binder"}, "CDK4": {"target": "CDK4 (Homo sapiens, UniProt P11802)", "settings": "1 µM; binder"}, "GAK": {"target": "GAK (Homo sapiens, UniProt O14976)", "settings": "1 µM; binder"}, "CAMK1D": {"target": "CAMK1D (Homo sapiens, UniProt Q8IU85)", "sequence (Q8IU85 whole entry)": "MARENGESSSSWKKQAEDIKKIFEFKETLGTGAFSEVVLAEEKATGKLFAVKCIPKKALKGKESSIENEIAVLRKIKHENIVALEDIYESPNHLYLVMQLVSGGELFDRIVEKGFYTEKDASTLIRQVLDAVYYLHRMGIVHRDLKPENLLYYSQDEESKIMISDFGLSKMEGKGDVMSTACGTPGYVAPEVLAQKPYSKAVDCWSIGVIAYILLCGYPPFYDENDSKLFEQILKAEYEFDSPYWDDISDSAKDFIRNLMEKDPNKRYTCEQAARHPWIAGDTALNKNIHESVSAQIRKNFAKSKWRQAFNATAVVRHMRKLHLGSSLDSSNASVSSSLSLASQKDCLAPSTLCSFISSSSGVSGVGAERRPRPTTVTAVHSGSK", "settings": "1 µM; binder"}, "ERBB4": {"target": "ERBB4 (Homo sapiens, UniProt Q15303)", "settings": "1 µM; binder"}, "FGR": {"target": "FGR (Homo sapiens, UniProt P09769)", "settings": "1 µM; binder"}, "S6K1": {"target": "S6K1 (Homo sapiens, UniProt P23443)", "settings": "1 µM; binder"}, "CDK3": {"target": "CDK3 (Homo sapiens, UniProt Q00526)", "settings": "1 µM; binder"}, "NLK": {"target": "NLK (Homo sapiens, UniProt Q9UBE8)", "settings": "1 µM; binder"}, "PIK3CD": {"target": "PIK3CD (Homo sapiens, UniProt O00329)", "settings": "1 µM; binder"}, "NEK10": {"target": "NEK10 (Homo sapiens, UniProt Q6ZWH5)", "settings": "1 µM; binder"}, "ABL1(Q252H)": {"target": "ABL1(Q252H) (Homo sapiens, UniProt P00519, Q252H)", "settings": "1 µM, binder"}}, "note": "Read-outs that look alike come from different tables or passages of the source.", "data": [{"compound": "CNc1ncc2cc(-c3ccc(-c4cccc(C)n4)cc3Cl)c(=O)n(C[C@H]3OC[C@H](N)CO3)c2n1", "note": "[compound 6, G-5555]", "values": [{"measurement": "Percent Control", "setting": "MYO3A", "result": 96, "unit": "%"}, {"measurement": "Percent Control", "setting": "BTK", "result": 63, "unit": "%"}, {"measurement": "Percent Control", "setting": "YANK2", "result": 0, "unit": "%"}, {"measurement": "Percent Control", "setting": "SNRK", "result": 89, "unit": "%"}, {"measurement": "Percent Control", "setting": "TAOK1", "result": 87, "unit": "%"}, {"measurement": "Percent Control", "setting": "JAK3", "result": 90, "unit": "%"}, {"measurement": "Percent Control", "setting": "TAK1", "result": 92, "unit": "%"}, {"measurement": "Percent Control", "setting": "TSSK3", "result": 84, "unit": "%"}, {"measurement": "Percent Control", "setting": "CSNK1G1", "result": 100, "unit": "%"}, {"measurement": "Percent Control", "setting": "ICK", "result": 100, "unit": "%"}, {"measurement": "Percent Control", "setting": "ABL2", "result": 100, "unit": "%"}, {"measurement": "Percent Control", "setting": "ADCK3", "result": 100, "unit": "%"}, {"measurement": "Percent Control", "setting": "PAK2", "result": 0, "unit": "%"}, {"measurement": "Percent Control", "setting": "RPS6KA1; Kin.Dom.1 N-terminal", "result": 69, "unit": "%"}, {"measurement": "Percent Control", "setting": "RPS6KA1; Kin.Dom.2 C-terminal, 1 µM", "result": 81, "unit": "%"}, {"measurement": "Percent Control", "setting": "FGFR1", "result": 100, "unit": "%"}, {"measurement": "Percent Control", "setting": "ITK", "result": 100, "unit": "%"}, {"measurement": "Percent Control", "setting": "NEK2", "result": 60, "unit": "%"}, {"measurement": "Percent Control", "setting": "ERK2", "result": 86, "unit": "%"}, {"measurement": "Percent Control", "setting": "RET(V804M)", "result": 100, "unit": "%"}, {"measurement": "Percent Control", "setting": "CDK4", "result": 100, "unit": "%"}, {"measurement": "Percent Control", "setting": "GAK", "result": 1.7, "unit": "%"}, {"measurement": "Percent Control", "setting": "CAMK1D", "result": 2.5, "unit": "%"}, {"measurement": "Percent Control", "setting": "ERBB4", "result": 100, "unit": "%"}, {"measurement": "Percent Control", "setting": "FGR", "result": 100, "unit": "%"}, {"measurement": "Percent Control", "setting": "S6K1", "result": 58, "unit": "%"}, {"measurement": "Percent Control", "setting": "CDK3", "result": 100, "unit": "%"}, {"measurement": "Percent Control", "setting": "NLK", "result": 17, "unit": "%"}, {"measurement": "Percent Control", "setting": "PIK3CD", "result": 97, "unit": "%"}, {"measurement": "Percent Control", "setting": "NEK10", "result": 100, "unit": "%"}, {"measurement": "Percent Control", "setting": "ABL1(Q252H); nonphosphorylated", "result": 75, "unit": "%"}, {"measurement": "Percent Control", "setting": "ABL1(Q252H); phosphorylated", "result": 100, "unit": "%"}]}]}
